Results as given in patent publication US11458138B2 (Novartis AG, priority 2017, dated 2022).

What was measured:
[1] = tested on: corneal endothelial cell population; assay: Quantitative RT-PCR of expanded corneal endothelial cell population; type: cell-based, human
Excerpt: (2) The cells express one or more of Collagen 8a2, AQP1 (aquaporin 1) and SLC4A11 (Solute Carrier Family 4 Member 11). […] The expression of Collagen 8a2, AQP1 or SLC4A11 may be estimated by standard techniques known in the art, such as for example immunohistochemistry, quantitative RT-PCR or by FACS analysis.
The expression of RPE65 and CD31 may be estimated by standard techniques known in the art, such as for example quantitative RT-PCR, immunohistochemistry or FACS analysis.

[2] = tested on: corneal endothelial cell population; assay: Immunohistochemical analysis of expanded corneal endothelial cell population; type: cell-based, human
Excerpt: (1) The cells express Na/K ATPase. The expression of Na/K ATPase may be estimated by standard techniques known in the art, such as for example immunohistochemistry, quantitative RT-PCR or by FACS analysis.

LATS1 = LATS1 (Homo sapiens (Human), UniProt O95835); assay: Target Identification Assay: inhibition of LATS1 activity (FIG. 33C); type: biochemical; conditions: read-out: IC50 against LATS1
Excerpt: The result further confirmed that the compounds of the invention are potent inhibitors of the LATS kinases.

[3] = tested on: Phospho-YAP (SER127) in liver tissue; assay: In vivo treatment of mice: Phospho-YAP (pYAP) HTRF in liver tissue; conditions: mouse liver, single oral dose 10 mg/kg
Method: (§1) All animal studies were carried out in accordance with federal, state, local and institutional guidelines governing the use of laboratory animals in research. Male C57BL/6J mice (age 8-10 weeks) were purchased from Jackson Labs (Bar Harbor, Me.). Example 46 was formulated for oral dosing at 3 mg/ml, and Example 261 at 1 mg/ml, in a suspension of methylcellulose:Tween80:Water (0.5:0.5:99). Single oral dose of either compound was at 10 mL/kg body weight. Blood and liver tissue were collected under deep anesthesia (isoflurane) at either 2 h post-dose (for mRNA analysis) or 24 h post-dose (for immunohistochemistry).
Frozen liver tissue was transferred into a Lysing Matrix tube (MP, cat #6913-500) with a 1:50 solution of Protease inhibitor (Sigma-Aldrich, cat #P8340) in Phosphosafe extraction buffer (Novagen, cat #71296-3) and homogenized using the FastPrep-24 (MP biomedicals). […] The protein concentration was measured using the BCA Protein Assay Kit (Pierce cat. 23227) following the manufacturer's protocol. […] The same input quantity was used for each sample, based on total protein content (30-60 ug per sample per well). […] Plates were read on an EnVision (PerkinElmer) with emission wavelengths of 665 nm & 620 nm. The HTRF signal ratio was calculated as Signal(665 nm)/Signal(620 nm))×10000 as specified in the manufacturer's protocol. […]

CTGF mRNA in liver = assay: In vivo treatment of mice: quantitative RT-PCR, CTGF; conditions: mouse liver, single oral dose 10 mg/kg, 2 h post-dose, relative to vehicle, mean+/-SEM
Method: as §1
Total liver RNA was isolated from tissue after storage in RNAlater reagent (Qiagen), using a TRIzol method according to the manufacturer's instructions (Life Technologies). Relative mRNA abundance was measured by quantitative RT-PCR using TaqMan gene expression assays and reagents according to standard protocols (Applied Biosystems). Mouse probes for YAP target genes were CTGF (Mm01192933_g1) and Cyr61 (Mm00487498_m1). […] Relative changes in mRNA were calculated by the ΔΔCt method. Changes in gene expression with compound treatment are expressed as fold-change relative to the vehicle group.

[4] = tested on: Ki67-positive hepatocytes; assay: In vivo treatment of mice: immunohistochemistry (IHC) for Ki67 in liver; conditions: mouse liver, single oral dose 10 mg/kg, 24 h post-dose, relative to vehicle, mean+/-SEM
Method: as §1
Liver tissue was fixed in 10% neutral buffered formalin for 24-48 h. Processing and embedding in paraffin was by standard procedures. Sections were cut at 5 microns thickness and stained using a Ventana automated system. Primary antibody for mouse Ki67 was a rabbit IgG (Bethyl Labs). Ki67-positive hepatocytes were quantified by image analysis using the HALO platform. At least 3 sections per animal were analyzed, from the middle of the medial lobe.

LATS1, sequence (O95835 whole entry): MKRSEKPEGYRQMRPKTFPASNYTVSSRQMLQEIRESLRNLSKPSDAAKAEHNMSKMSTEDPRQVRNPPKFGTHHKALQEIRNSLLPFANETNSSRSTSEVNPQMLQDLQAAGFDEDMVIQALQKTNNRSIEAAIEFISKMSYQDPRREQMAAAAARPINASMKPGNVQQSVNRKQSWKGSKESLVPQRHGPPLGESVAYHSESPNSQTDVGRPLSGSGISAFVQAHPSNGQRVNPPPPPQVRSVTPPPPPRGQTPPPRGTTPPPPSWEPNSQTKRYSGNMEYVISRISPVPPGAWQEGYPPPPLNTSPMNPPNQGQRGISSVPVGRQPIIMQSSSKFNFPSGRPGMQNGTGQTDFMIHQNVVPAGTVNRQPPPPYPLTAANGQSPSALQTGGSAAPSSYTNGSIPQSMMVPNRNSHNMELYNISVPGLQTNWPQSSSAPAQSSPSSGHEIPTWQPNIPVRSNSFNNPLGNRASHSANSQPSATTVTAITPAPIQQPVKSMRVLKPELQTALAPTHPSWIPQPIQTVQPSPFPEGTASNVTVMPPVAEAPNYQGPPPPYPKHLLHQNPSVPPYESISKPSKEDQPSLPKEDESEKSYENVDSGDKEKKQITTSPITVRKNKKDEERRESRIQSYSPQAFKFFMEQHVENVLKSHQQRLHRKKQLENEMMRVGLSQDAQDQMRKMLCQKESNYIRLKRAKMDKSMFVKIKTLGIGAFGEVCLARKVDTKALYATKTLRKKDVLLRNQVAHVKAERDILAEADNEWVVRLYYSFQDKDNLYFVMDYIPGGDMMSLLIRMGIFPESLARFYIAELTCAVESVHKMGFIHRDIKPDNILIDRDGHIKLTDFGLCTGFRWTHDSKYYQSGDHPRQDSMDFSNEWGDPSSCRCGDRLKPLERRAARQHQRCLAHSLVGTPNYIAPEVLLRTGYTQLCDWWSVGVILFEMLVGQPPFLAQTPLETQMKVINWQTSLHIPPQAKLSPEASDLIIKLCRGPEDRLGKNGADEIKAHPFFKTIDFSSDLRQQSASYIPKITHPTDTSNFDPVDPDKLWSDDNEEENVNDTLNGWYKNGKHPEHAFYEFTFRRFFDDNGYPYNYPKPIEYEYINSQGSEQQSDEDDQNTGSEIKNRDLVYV

CC(C)(O)CC(C)(C)Nc1nc(-c2ccncc2)nc2cnccc12 [Example 49, 2,4-dimethyl-4-{[2-(pyridin-4-yl)pyrido[3,4-d]pyrimidin-4-yl]amino}pentan-2-ol]
expression of Collagen 8a2, AQP1, SLc4A11 by quantitative RT-PCR [1]: express genes normally expressed by corneal endothelial cells in vivo
expression of RPE65 and CD31 by quantitative RT-PCR [1]: do not express markers of other epithelia present in the eye
expression of Na/K ATPase and Collagen 8a2 by immunohistochemistry [2]: express genes normally expressed by corneal endothelial cells in vivo

Cc1n[nH]cc1-c1nc(NC2(C)CC2)c2ccncc2n1 [Example 133, 2-(3-methyl-1H-pyrazol-4-yl)-N-(1-methylcyclopropyl)pyrido[3,4-d]pyrimidin-4-amine]
IC50 (LATS1): 1.3 nM

CC(C)(C)Nc1cc(-c2ccncc2)nc2cnccc12 [Example 261, N-(tert-butyl)-2-(pyridin-4-yl)-1,7-naphthyridin-4-amine]
pYAP (% of control) [3]: 60 % of control
CTGF mRNA (fold-change) (CTGF mRNA in liver): 2.5 (+/−0.2) fold-change
Ki67 IHC (fold-change) [4]: 3.1 (+/−0.5) fold-change
